{"source": "the kinase profiling compilation of Christmann-Franck et al. (2016)", "assay_in_all_cases": "KINOMEscan competition binding", "details_in_all_cases": "compound 10.0 µM", "key": {"MAP3K10 (human)": {"target": "MAP3K10 (human) (UniProt Q02779)"}, "PLK4 (human)": {"target": "PLK4 (human) (UniProt O00444)"}, "BMPR1A (human)": {"target": "BMPR1A (human) (UniProt P36894)"}, "BRSK2 (human)": {"target": "BRSK2 (human) (UniProt Q8IWQ3)"}, "PAK2 (human)": {"target": "PAK2 (human) (UniProt Q13177)"}, "EPHA5 (human)": {"target": "EPHA5 (human) (UniProt P54756)"}, "CDC42BPG (human)": {"target": "CDC42BPG (human) (UniProt Q6DT37)"}, "STK4 (human)": {"target": "STK4 (human) (UniProt Q13043)", "sequence (Q13043 whole entry, looked up)": "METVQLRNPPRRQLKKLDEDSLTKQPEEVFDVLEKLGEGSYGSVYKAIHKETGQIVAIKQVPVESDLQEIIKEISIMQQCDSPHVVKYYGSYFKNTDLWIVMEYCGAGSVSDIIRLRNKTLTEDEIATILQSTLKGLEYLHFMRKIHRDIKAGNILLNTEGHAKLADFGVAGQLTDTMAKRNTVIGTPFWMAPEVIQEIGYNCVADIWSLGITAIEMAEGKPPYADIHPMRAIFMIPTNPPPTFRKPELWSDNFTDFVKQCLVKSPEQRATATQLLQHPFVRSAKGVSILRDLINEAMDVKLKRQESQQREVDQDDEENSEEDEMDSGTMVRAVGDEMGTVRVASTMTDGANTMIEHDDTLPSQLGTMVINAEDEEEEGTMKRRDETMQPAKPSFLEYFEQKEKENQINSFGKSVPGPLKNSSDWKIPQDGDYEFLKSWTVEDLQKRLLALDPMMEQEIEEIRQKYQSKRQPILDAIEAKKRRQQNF"}, "[1]": {"tested_on": "EGFR (human), P00533 [746-750 del]", "sequence (P00533 whole entry, looked up, stated change not applied)": "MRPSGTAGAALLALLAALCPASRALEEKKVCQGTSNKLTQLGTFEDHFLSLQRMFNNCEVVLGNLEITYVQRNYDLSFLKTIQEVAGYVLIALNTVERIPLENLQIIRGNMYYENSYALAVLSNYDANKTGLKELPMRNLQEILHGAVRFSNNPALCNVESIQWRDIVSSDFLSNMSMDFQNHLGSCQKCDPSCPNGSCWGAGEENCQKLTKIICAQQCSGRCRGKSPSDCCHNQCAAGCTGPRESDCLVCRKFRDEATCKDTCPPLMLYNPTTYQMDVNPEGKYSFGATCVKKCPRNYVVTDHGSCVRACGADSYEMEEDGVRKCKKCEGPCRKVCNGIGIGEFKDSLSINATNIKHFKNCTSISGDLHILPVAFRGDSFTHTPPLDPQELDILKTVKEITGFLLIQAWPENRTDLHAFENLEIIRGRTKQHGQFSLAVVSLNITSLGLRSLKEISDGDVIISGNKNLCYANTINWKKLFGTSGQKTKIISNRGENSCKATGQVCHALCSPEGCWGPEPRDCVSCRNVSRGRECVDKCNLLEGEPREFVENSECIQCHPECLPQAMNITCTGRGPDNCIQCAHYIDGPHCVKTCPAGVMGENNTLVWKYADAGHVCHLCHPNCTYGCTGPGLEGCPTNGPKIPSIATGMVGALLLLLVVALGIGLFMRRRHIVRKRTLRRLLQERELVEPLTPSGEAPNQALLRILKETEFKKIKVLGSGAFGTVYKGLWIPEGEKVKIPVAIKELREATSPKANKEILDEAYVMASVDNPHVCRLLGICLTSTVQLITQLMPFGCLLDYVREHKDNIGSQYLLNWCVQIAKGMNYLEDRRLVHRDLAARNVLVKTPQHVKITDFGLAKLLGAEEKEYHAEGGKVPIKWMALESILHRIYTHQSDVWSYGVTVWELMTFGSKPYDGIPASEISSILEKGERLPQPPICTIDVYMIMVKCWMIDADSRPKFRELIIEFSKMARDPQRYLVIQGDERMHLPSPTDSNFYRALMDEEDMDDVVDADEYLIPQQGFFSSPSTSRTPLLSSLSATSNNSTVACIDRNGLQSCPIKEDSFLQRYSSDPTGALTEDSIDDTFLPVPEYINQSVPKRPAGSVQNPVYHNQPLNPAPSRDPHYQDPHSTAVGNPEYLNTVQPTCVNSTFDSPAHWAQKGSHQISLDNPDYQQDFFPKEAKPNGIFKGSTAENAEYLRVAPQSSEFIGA"}, "EPHA1 (human)": {"target": "EPHA1 (human) (UniProt P21709)"}, "NEK6 (human)": {"target": "NEK6 (human) (UniProt Q9HC98)", "sequence (Q9HC98 whole entry, looked up)": "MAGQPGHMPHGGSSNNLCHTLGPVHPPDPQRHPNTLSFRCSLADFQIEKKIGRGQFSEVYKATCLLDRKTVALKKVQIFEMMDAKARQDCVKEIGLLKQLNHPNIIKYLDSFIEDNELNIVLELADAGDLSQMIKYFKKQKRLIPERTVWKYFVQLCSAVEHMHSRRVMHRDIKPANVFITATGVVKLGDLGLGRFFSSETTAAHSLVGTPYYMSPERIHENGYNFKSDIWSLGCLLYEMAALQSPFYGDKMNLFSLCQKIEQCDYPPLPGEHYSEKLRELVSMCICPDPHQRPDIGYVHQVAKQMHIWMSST"}, "MAPK4 (human)": {"target": "MAPK4 (human) (UniProt P31152)"}, "DDR2 (human)": {"target": "DDR2 (human) (UniProt Q16832)"}, "CDK18 (human)": {"target": "CDK18 (human) (UniProt Q07002)", "sequence (Q07002 whole entry, looked up)": "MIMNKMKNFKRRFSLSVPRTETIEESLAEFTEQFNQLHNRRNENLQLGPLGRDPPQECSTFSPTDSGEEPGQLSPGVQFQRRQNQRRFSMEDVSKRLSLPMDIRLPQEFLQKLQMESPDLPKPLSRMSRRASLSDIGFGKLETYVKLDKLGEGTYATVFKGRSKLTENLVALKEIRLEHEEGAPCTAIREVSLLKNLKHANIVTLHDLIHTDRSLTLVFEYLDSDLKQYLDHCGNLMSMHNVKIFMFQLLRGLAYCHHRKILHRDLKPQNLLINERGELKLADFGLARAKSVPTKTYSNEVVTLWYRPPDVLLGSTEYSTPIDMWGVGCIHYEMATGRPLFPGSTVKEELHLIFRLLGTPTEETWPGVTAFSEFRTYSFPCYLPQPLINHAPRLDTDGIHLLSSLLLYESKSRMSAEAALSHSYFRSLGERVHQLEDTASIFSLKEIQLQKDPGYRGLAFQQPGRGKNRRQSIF"}, "DMPK (human)": {"target": "DMPK (human) (UniProt Q09013)", "sequence (Q09013 whole entry, looked up)": "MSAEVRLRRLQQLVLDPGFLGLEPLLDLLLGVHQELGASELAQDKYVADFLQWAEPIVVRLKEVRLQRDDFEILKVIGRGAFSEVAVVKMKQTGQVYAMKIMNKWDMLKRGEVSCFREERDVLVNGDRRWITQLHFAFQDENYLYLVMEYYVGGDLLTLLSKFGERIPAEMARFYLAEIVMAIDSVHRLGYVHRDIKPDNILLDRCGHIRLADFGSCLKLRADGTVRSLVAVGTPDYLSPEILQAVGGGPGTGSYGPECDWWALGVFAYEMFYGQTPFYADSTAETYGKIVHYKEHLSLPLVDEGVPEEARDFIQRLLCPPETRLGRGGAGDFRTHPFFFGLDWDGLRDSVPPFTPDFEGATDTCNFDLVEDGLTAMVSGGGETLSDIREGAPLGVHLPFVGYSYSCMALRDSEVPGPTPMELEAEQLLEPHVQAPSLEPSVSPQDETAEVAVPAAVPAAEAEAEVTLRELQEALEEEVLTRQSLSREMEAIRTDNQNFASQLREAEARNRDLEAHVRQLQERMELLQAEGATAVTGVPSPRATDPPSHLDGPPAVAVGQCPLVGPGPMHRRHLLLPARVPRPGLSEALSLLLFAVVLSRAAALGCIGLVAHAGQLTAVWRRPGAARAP"}, "BMPR1B (human)": {"target": "BMPR1B (human) (UniProt O00238)"}, "MINK1 (human)": {"target": "MINK1 (human) (UniProt Q8N4C8)"}, "MAPK10 (human)": {"target": "MAPK10 (human) (UniProt P53779)"}, "RIOK3 (human)": {"target": "RIOK3 (human) (UniProt O14730)"}, "ADCK4 (human)": {"target": "ADCK4 (human) (UniProt Q96D53)"}, "MAP4K5 (human)": {"target": "MAP4K5 (human) (UniProt Q9Y4K4)"}, "NTRK2 (human)": {"target": "NTRK2 (human) (UniProt Q16620)", "sequence (Q16620 whole entry, looked up)": "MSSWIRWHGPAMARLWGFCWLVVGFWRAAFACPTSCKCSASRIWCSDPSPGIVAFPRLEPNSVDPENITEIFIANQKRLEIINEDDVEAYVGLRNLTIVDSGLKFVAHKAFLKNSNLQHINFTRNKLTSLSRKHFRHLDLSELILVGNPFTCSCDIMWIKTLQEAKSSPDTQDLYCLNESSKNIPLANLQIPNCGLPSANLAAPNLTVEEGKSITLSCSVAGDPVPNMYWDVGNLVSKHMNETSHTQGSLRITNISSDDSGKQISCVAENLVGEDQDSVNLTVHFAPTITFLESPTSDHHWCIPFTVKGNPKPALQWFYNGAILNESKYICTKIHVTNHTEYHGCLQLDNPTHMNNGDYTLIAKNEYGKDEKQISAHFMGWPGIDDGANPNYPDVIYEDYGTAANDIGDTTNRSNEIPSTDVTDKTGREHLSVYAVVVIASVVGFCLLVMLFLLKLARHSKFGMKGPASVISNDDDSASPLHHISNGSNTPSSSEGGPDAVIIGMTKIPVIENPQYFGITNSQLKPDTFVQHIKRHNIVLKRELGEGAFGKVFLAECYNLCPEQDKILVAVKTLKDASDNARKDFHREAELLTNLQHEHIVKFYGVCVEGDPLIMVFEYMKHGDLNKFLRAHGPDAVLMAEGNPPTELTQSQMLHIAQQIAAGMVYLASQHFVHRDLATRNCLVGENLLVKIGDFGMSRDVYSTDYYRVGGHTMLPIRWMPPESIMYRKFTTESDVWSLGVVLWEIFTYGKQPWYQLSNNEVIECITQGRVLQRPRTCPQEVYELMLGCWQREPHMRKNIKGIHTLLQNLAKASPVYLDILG"}, "CDK7 (human)": {"target": "CDK7 (human) (UniProt P50613)", "sequence (P50613 whole entry, looked up)": "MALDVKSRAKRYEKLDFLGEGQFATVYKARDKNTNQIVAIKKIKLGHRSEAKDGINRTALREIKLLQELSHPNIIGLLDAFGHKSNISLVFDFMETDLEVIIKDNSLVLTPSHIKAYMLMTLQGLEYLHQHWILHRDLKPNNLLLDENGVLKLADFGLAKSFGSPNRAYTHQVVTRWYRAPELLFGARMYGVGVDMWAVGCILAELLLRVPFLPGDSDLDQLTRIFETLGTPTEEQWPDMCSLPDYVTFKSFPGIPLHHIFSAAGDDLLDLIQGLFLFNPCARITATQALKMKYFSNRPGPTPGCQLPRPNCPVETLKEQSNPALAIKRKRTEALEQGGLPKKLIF"}, "EPHA8 (human)": {"target": "EPHA8 (human) (UniProt P29322)"}, "[2]": {"tested_on": "KIT (human), P10721 [D816V]"}, "MST4 (human)": {"target": "MST4 (human) (UniProt Q9P289)"}, "TGFBR1 (human)": {"target": "TGFBR1 (human) (UniProt P36897)"}, "AAK1 (human)": {"target": "AAK1 (human) (UniProt Q2M2I8)"}, "RPS6KA6 KD1 (human)": {"target": "RPS6KA6 KD1 (human) (UniProt Q9UK32)"}, "IRAK3 (human)": {"target": "IRAK3 (human) (UniProt Q9Y616)"}, "MERTK (human)": {"target": "MERTK (human) (UniProt Q12866)"}, "[3]": {"tested_on": "ABL1 (human), P00519 [Y253F]"}, "MAP2K4 (human)": {"target": "MAP2K4 (human) (UniProt P45985)"}, "ULK2 (human)": {"target": "ULK2 (human) (UniProt Q8IYT8)"}, "[4]": {"tested_on": "EGFR (human), P00533 [752-759 del]"}, "PRKACB (human)": {"target": "PRKACB (human) (UniProt P22694)"}, "TSSK1B (human)": {"target": "TSSK1B (human) (UniProt Q9BXA7)", "sequence (Q9BXA7 whole entry, looked up)": "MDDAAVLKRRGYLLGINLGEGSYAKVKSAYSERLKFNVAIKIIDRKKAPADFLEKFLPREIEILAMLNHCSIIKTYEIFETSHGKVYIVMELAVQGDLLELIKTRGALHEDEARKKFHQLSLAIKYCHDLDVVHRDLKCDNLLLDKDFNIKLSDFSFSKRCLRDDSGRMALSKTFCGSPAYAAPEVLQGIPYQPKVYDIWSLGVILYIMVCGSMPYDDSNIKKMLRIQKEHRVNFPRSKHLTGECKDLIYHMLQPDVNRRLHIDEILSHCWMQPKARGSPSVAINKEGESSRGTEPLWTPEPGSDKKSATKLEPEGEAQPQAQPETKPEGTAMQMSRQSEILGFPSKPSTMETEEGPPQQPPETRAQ"}, "CHEK1 (human)": {"target": "CHEK1 (human) (UniProt O14757)"}, "[5]": {"target": "JAK2 JH1 catalytic (human) (UniProt O60674)"}, "[6]": {"tested_on": "FLT3 (human), P36888 [ITD]"}, "[7]": {"tested_on": "RET (human), P07949 [V804M]"}, "FLT3 (human)": {"target": "FLT3 (human) (UniProt P36888)"}}}
{"smiles": "COc1cc(N2CCC(N3CCN(C)CC3)CC2)ccc1Nc1ncc(Cl)c(Nc2ccccc2S(=O)(=O)C(C)C)n1", "values": [{"measurement": "kinase still bound, per cent of control", "setting": "MAP3K10 (human)", "value": 4.6, "unit": "%"}, {"measurement": "kinase still bound, per cent of control", "setting": "PLK4 (human)", "value": 0, "unit": "%"}, {"measurement": "kinase still bound, per cent of control", "setting": "BMPR1A (human)", "value": 0, "unit": "%"}, {"measurement": "kinase still bound, per cent of control", "setting": "BRSK2 (human)", "value": 0.5, "unit": "%"}, {"measurement": "kinase still bound, per cent of control", "setting": "PAK2 (human)", "value": 30, "unit": "%"}, {"measurement": "kinase still bound, per cent of control", "setting": "EPHA5 (human)", "value": 21, "unit": "%"}, {"measurement": "kinase still bound, per cent of control", "setting": "CDC42BPG (human)", "value": 23, "unit": "%"}, {"measurement": "kinase still bound, per cent of control", "setting": "STK4 (human)", "value": 4.1, "unit": "%"}, {"measurement": "kinase still bound, per cent of control", "setting": "[1]", "value": 0, "unit": "%"}, {"measurement": "kinase still bound, per cent of control", "setting": "EPHA1 (human)", "value": 0.15, "unit": "%"}, {"measurement": "kinase still bound, per cent of control", "setting": "NEK6 (human)", "value": 1.8, "unit": "%"}, {"measurement": "kinase still bound, per cent of control", "setting": "MAPK4 (human)", "value": 40, "unit": "%"}, {"measurement": "kinase still bound, per cent of control", "setting": "DDR2 (human)", "value": 14, "unit": "%"}, {"measurement": "kinase still bound, per cent of control", "setting": "CDK18 (human)", "value": 40, "unit": "%"}, {"measurement": "kinase still bound, per cent of control", "setting": "DMPK (human)", "value": 1.8, "unit": "%"}, {"measurement": "kinase still bound, per cent of control", "setting": "BMPR1B (human)", "value": 1.2, "unit": "%"}, {"measurement": "kinase still bound, per cent of control", "setting": "MINK1 (human)", "value": 40, "unit": "%"}, {"measurement": "kinase still bound, per cent of control", "setting": "MAPK10 (human)", "value": 2.6, "unit": "%"}, {"measurement": "kinase still bound, per cent of control", "setting": "RIOK3 (human)", "value": 3.2, "unit": "%"}, {"measurement": "kinase still bound, per cent of control", "setting": "ADCK4 (human)", "value": 0, "unit": "%"}, {"measurement": "kinase still bound, per cent of control", "setting": "MAP4K5 (human)", "value": 0.3, "unit": "%"}, {"measurement": "kinase still bound, per cent of control", "setting": "NTRK2 (human)", "value": 8.4, "unit": "%"}, {"measurement": "kinase still bound, per cent of control", "setting": "CDK7 (human)", "value": 0.15, "unit": "%"}, {"measurement": "kinase still bound, per cent of control", "setting": "EPHA8 (human)", "value": 40, "unit": "%"}, {"measurement": "kinase still bound, per cent of control", "setting": "[2]", "value": 3.1, "unit": "%"}, {"measurement": "kinase still bound, per cent of control", "setting": "MST4 (human)", "value": 27, "unit": "%"}, {"measurement": "kinase still bound, per cent of control", "setting": "TGFBR1 (human)", "value": 0.2, "unit": "%"}, {"measurement": "kinase still bound, per cent of control", "setting": "AAK1 (human)", "value": 2.8, "unit": "%"}, {"measurement": "kinase still bound, per cent of control", "setting": "RPS6KA6 KD1 (human)", "value": 1.1, "unit": "%"}, {"measurement": "kinase still bound, per cent of control", "setting": "IRAK3 (human)", "value": 0.15, "unit": "%"}, {"measurement": "kinase still bound, per cent of control", "setting": "MERTK (human)", "value": 0, "unit": "%"}, {"measurement": "kinase still bound, per cent of control", "setting": "[3]", "value": 4.2, "unit": "%"}, {"measurement": "kinase still bound, per cent of control", "setting": "MAP2K4 (human)", "value": 1.6, "unit": "%"}, {"measurement": "kinase still bound, per cent of control", "setting": "ULK2 (human)", "value": 1.1, "unit": "%"}, {"measurement": "kinase still bound, per cent of control", "setting": "[4]", "value": 1.4, "unit": "%"}, {"measurement": "kinase still bound, per cent of control", "setting": "PRKACB (human)", "value": 9.9, "unit": "%"}, {"measurement": "kinase still bound, per cent of control", "setting": "TSSK1B (human)", "value": 0, "unit": "%"}, {"measurement": "kinase still bound, per cent of control", "setting": "CHEK1 (human)", "value": 0, "unit": "%"}]}
{"smiles": "CCOc1cc(N2CCC(N3CCCCC3)CC2)ccc1Nc1nc(Nc2ccccc2S(=O)(=O)C(C)C)c2cn[nH]c2n1", "values": [{"measurement": "kinase still bound, per cent of control", "setting": "MAP3K10 (human)", "value": 100, "unit": "%"}, {"measurement": "kinase still bound, per cent of control", "setting": "PLK4 (human)", "value": 74, "unit": "%"}, {"measurement": "kinase still bound, per cent of control", "setting": "BMPR1A (human)", "value": 100, "unit": "%"}, {"measurement": "kinase still bound, per cent of control", "setting": "BRSK2 (human)", "value": 94, "unit": "%"}, {"measurement": "kinase still bound, per cent of control", "setting": "PAK2 (human)", "value": 82, "unit": "%"}, {"measurement": "kinase still bound, per cent of control", "setting": "EPHA5 (human)", "value": 100, "unit": "%"}, {"measurement": "kinase still bound, per cent of control", "setting": "CDC42BPG (human)", "value": 100, "unit": "%"}, {"measurement": "kinase still bound, per cent of control", "setting": "STK4 (human)", "value": 100, "unit": "%"}, {"measurement": "kinase still bound, per cent of control", "setting": "[1]", "value": 20, "unit": "%"}, {"measurement": "kinase still bound, per cent of control", "setting": "EPHA1 (human)", "value": 100, "unit": "%"}, {"measurement": "kinase still bound, per cent of control", "setting": "[5]", "value": 50, "unit": "%"}, {"measurement": "kinase still bound, per cent of control", "setting": "NEK6 (human)", "value": 100, "unit": "%"}, {"measurement": "kinase still bound, per cent of control", "setting": "MAPK4 (human)", "value": 100, "unit": "%"}, {"measurement": "kinase still bound, per cent of control", "setting": "DDR2 (human)", "value": 93, "unit": "%"}, {"measurement": "kinase still bound, per cent of control", "setting": "CDK18 (human)", "value": 100, "unit": "%"}, {"measurement": "kinase still bound, per cent of control", "setting": "DMPK (human)", "value": 70, "unit": "%"}, {"measurement": "kinase still bound, per cent of control", "setting": "BMPR1B (human)", "value": 49, "unit": "%"}, {"measurement": "kinase still bound, per cent of control", "setting": "MINK1 (human)", "value": 71, "unit": "%"}, {"measurement": "kinase still bound, per cent of control", "setting": "MAPK10 (human)", "value": 7.2, "unit": "%"}, {"measurement": "kinase still bound, per cent of control", "setting": "RIOK3 (human)", "value": 88, "unit": "%"}, {"measurement": "kinase still bound, per cent of control", "setting": "ADCK4 (human)", "value": 29, "unit": "%"}, {"measurement": "kinase still bound, per cent of control", "setting": "[6]", "value": 100, "unit": "%"}, {"measurement": "kinase still bound, per cent of control", "setting": "MAP4K5 (human)", "value": 58, "unit": "%"}, {"measurement": "kinase still bound, per cent of control", "setting": "NTRK2 (human)", "value": 59, "unit": "%"}, {"measurement": "kinase still bound, per cent of control", "setting": "CDK7 (human)", "value": 42, "unit": "%"}, {"measurement": "kinase still bound, per cent of control", "setting": "EPHA8 (human)", "value": 100, "unit": "%"}, {"measurement": "kinase still bound, per cent of control", "setting": "[2]", "value": 74, "unit": "%"}, {"measurement": "kinase still bound, per cent of control", "setting": "MST4 (human)", "value": 100, "unit": "%"}, {"measurement": "kinase still bound, per cent of control", "setting": "TGFBR1 (human)", "value": 95, "unit": "%"}, {"measurement": "kinase still bound, per cent of control", "setting": "AAK1 (human)", "value": 69, "unit": "%"}, {"measurement": "kinase still bound, per cent of control", "setting": "RPS6KA6 KD1 (human)", "value": 23, "unit": "%"}, {"measurement": "kinase still bound, per cent of control", "setting": "IRAK3 (human)", "value": 100, "unit": "%"}, {"measurement": "kinase still bound, per cent of control", "setting": "MERTK (human)", "value": 100, "unit": "%"}, {"measurement": "kinase still bound, per cent of control", "setting": "[3]", "value": 61, "unit": "%"}, {"measurement": "kinase still bound, per cent of control", "setting": "[7]", "value": 100, "unit": "%"}, {"measurement": "kinase still bound, per cent of control", "setting": "MAP2K4 (human)", "value": 8.2, "unit": "%"}, {"measurement": "kinase still bound, per cent of control", "setting": "ULK2 (human)", "value": 3.4, "unit": "%"}, {"measurement": "kinase still bound, per cent of control", "setting": "[4]", "value": 49, "unit": "%"}, {"measurement": "kinase still bound, per cent of control", "setting": "PRKACB (human)", "value": 100, "unit": "%"}, {"measurement": "kinase still bound, per cent of control", "setting": "TSSK1B (human)", "value": 92, "unit": "%"}, {"measurement": "kinase still bound, per cent of control", "setting": "FLT3 (human)", "value": 100, "unit": "%"}, {"measurement": "kinase still bound, per cent of control", "setting": "CHEK1 (human)", "value": 100, "unit": "%"}]}
